The source made the active and inactive calls. No rule for the calls is given here.

In the data set the test system is rodent carcinogenicity bioassays, tumor incidence. In words: CCRIS carcinogenicity studies. Put shortly: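 NCI-built, expert-reviewed records of carcinogenicity and related test outcomes (mutagenicity, tumor promotion/inhibition) compiled from published and report sources, historical span 1985-2011, not updated.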

`CC(=O)O`: the carcinogen call is “inactive; negative” (Species: MOUSE, Strain/Sex: SWISS/FEMALE, Route: ORAL, Dose: 0, 5 PPM IN DRINKING WATER FOR DURATION OF STUDY (STUDY DURATION: LIFE SPAN)) and “inactive; negative” (Species: MOUSE, Strain/Sex: SWISS/MALE, Route: ORAL, Dose: 0, 5 PPM IN DRINKING WATER FOR DURATION OF STUDY (STUDY DURATION: LIFE SPAN)).

In the case of `FCCl`, for the setting “Species: RAT, Strain/Sex: WISTAR/MALE,FEMALE, Route: GAVAGE, Dose: 300 MG/KG IN CORN OIL 5/WK FOR 52 WK, Tumor Site: Type of Lesion: STOMACH: SQUAMOUS CELL CARCINOMA, FIBROSARCOMA”, the carcinogen call is “active; positive”.

Regarding `N#CS`, the carcinogen call reads like this: (Species: RAT, Strain/Sex: F344/FEMALE, Route: ORAL, Dose: 0, 0.32% IN DRINKING WATER 5 D/WK FOR 112 WK (STUDY DURATION: 130 WK)) “inactive; negative”; (Species: RAT, Strain/Sex: F344/MALE, Route: ORAL, Dose: 0, 0.32% IN DRINKING WATER 5 D/WK FOR 112 WK (STUDY DURATION: 130 WK)) “inactive; negative”.

With `O=C1[C@H]2CC=CC[C@H]2C(=O)N1SC(Cl)(Cl)Cl`, the carcinogen call (Species: MOUSE, Strain/Sex: B6C3F1/MALE, Route: ORAL, Dose: 0, 8000, 16000 PPM IN DIET, Dose: 0, 8000, 16000 PPM IN DIET, Tumor Site: Type of Lesion: DUODENUM: ADENOMATOUS POLYP (NOS) OR ADENOCARCINOMA IN ADENOMATOUS POLYP) was “active; positive”; the carcinogen call (Species: MOUSE, Strain/Sex: SWISS/FEMALE, Route: DERMAL, Dose: 0, 450 UG IN 200 µL DMSO 3/WK FOR 52 WK (STUDY DURATION: 52 WK)) is “inactive; negative”; the carcinogen call (Species: Mouse, Strain/Sex: Swiss CD-1/Female (80/dose), Route: Oral, Dose: 0, 2000/6000, 6000/10,000, 10,000/16,000 ppm in diet for 113 wk (lower dose first 4 wk, higher dose for remainder of stu, Dose: 0, 2000/6000, 6000/10,000, 10,000/16,000 ppm in diet for 113 wk (lower dose first 4 wk, higher dose for remainder of stu) was “inactive; negative (purity of 90.7%; study details not given in source)”; the carcinogen call (Species: Mouse, Strain/Sex: Swiss CD-1/Male (80/dose), Route: Oral, Dose: 0, 2000/6000, 6000/10,000, 10,000/16,000 ppm in diet for 113 wk (lower dose first 4 wk, higher dose for remainder of stu, Dose: 0, 2000/6000, 6000/10,000, 10,000/16,000 ppm in diet for 113 wk (lower dose first 4 wk, higher dose for remainder of stu, Tumor Site: Type of Lesion: INTESTINE: Adenomas and adenocarcinomas in jejunum) is “active; positive (10,000 ppm group) (purity of 90.7%; study details n ot given in source”; the carcinogen call (Species: RAT, Strain/Sex: OSBORNE-MENDEL/FEMALE, Route: ORAL, Dose: 0, 2525, 6060 PPM IN DIET, TWA, Dose: 0, 2525, 6060 PPM IN DIET, TWA) is “inactive; negative”; the carcinogen call (Species: RAT, Strain/Sex: OSBORNE-MENDEL/MALE, Route: ORAL, Dose: 0, 2525, 6060 PPM IN DIET, TWA, Dose: 0, 2525, 6060 PPM IN DIET, TWA) was “inactive; negative”. In addition, the carcinogen call reads like this: (Species: Rat, Strain/Sex: CD/Female (50/group), Route: Oral, Dose: 0, 25, 100, 250 mg/kg/day in diet for 2 yr, Dose: 0, 25, 100, 250 mg/kg/day in diet for 2 yr) “inactive; negative (purity of 89%; study details not given in source)”; (Species: Rat, Strain/Sex: CD/Male (50/group), Route: Oral, Dose: 0, 25, 100, 250 mg/kg/day in diet for 2 yr, Dose: 0, 25, 100, 250 mg/kg/day in diet for 2 yr, Tumor Site: Type of Lesion: KIDNEY: Renal tubular adenomas or carcinomas (1, 1, 3, 4)) “active; positive (purity of 89%; study details not given in source)”.

Regarding `ClCc1ccccn1`, the carcinogen call runs as follows: (Species: MOUSE, Strain/Sex: B6C3F1/FEMALE, Route: GAVAGE, Dose: 0, 125, 250 MG/KG IN AQ SOLN, Dose: 0, 125, 250 MG/KG IN AQ SOLN) “inactive; negative”; (Species: MOUSE, Strain/Sex: B6C3F1/MALE, Route: GAVAGE, Dose: 0, 125, 250 MG/KG IN AQ SOLN, Dose: 0, 125, 250 MG/KG IN AQ SOLN) “inactive; negative”; (Species: RAT, Strain/Sex: F344/FEMALE, Route: GAVAGE, Dose: 0, 75, 150 MG/KG IN AQ SOLN, Dose: 0, 75, 150 MG/KG IN AQ SOLN) “inactive; negative”; (Species: RAT, Strain/Sex: F344/MALE, Route: GAVAGE, Dose: 0, 75, 150 MG/KG IN AQ SOLN, Dose: 0, 75, 150 MG/KG IN AQ SOLN) “inactive; negative”.

As for `C=CCc1ccc(OC)cc1`, the carcinogen call by setting is: (Species: MOUSE, Strain/Sex: B6C3F1/MALE, Route: INTRAPERITONEAL, Dose: 0, 4.75 UMOL TOTAL DOSE, D 1,8,15 AND 22 AFTER BIRTH, AUTOPSIED AT 13-18 MO, Dose: 0, 4.75 UMOL TOTAL DOSE, D 1,8,15 AND 22 AFTER BIRTH, AUTOPSIED AT 13-18 MO, Tumor Site: Type of Lesion: LIVER: HEPATOMA) “active; positive”; (Species: MOUSE, Strain/Sex: C3H/MALE, Route: INTRAPERITONEAL, Dose: 0, 9.45 UMOL TOTAL DOSE, D 1,8,15 AND 22 AFTER BIRTH, AUTOPSIED AT 12 MO, Dose: 0, 9.45 UMOL TOTAL DOSE, D 1,8,15 AND 22 AFTER BIRTH, AUTOPSIED AT 12 MO, Tumor Site: Type of Lesion: LIVER: HEPATOMA) “active; positive”; (Species: MOUSE, Strain/Sex: CD-1/FEMALE, Route: ORAL, Dose: 0, 0.23, 0.46% IN DIET, FOR 12 MO, Dose: 0, 0.23, 0.46% IN DIET, FOR 12 MO, Tumor Site: Type of Lesion: LIVER: HEPATOMA) “active; positive”; (Species: MOUSE, Strain/Sex: CD-1/MALE,FEMALE, Route: GAVAGE, Dose: 0, 25 UMOL/G TOTAL DOSE, 2/WK FOR 5 WK BEGINNING ON D 4 AFTER BIRTH, AUTOPSIED AT 11-14 MO, Dose: 0, 25 UMOL/G TOTAL DOSE, 2/WK FOR 5 WK BEGINNING ON D 4 AFTER BIRTH, AUTOPSIED AT 11-14 MO, Tumor Site: Type of Lesion: LIVER: HEPATOMA) “active; positive”; (Species: MOUSE, Strain/Sex: CD-1/MALE, Route: SUBCUTANEOUS, Dose: 0, 0.17, 0.35 UMOL IN 0.025 ML TRIOCTANOIN WITHIN 24 HR AFTER BIRTH THEN 0, 0.47, 0.69 UMOL IN 0.05 ML TRIOCTANOIN ON D, Dose: 0, 0.17, 0.35 UMOL IN 0.025 ML TRIOCTANOIN WITHIN 24 HR AFTER BIRTH THEN 0, 0.47, 0.69 UMOL IN 0.05 ML TRIOCTANOIN ON D, Tumor Site: Type of Lesion: LIVER: HEPATOCELLULAR CARCINOMA) “active; positive”; (Species: MOUSE, Strain/Sex: CD-1/MALE, Route: SUBCUTANEOUS, Dose: 0, 4.43, 5.19 UMOL TOTAL DOSE, D 1,8,15 AND 22 AFTER BIRTH, Dose: 0, 4.43, 5.19 UMOL TOTAL DOSE, D 1,8,15 AND 22 AFTER BIRTH, Tumor Site: Type of Lesion: LIVER: HEPATOCELLULAR CARCINOMA) “active; positive”. In addition, the carcinogen call (Species: Mouse, Strain/Sex: ICR/Female (30 324 day survivors/Group), Route: Intraperitoneal injection, Dose: 150 mg/kg bw a wk for 17 wks, study duration 537 days, Tumor Site: Type of Lesion: Liver: Hepatocellular adenoma and carcinoma) is “active; positive (80% incidence). apparent lack of concurrent controls”.

On to `CC(Cl)Cl`, for which the carcinogen call (Species: MOUSE, Strain/Sex: B6C3F1/FEMALE, Route: GAVAGE, Dose: 0, 1665, 3331 MG/KG 5/WK FOR 78 WK (STUDY DURATION: 91 WK), Dose: 0, 1665, 3331 MG/KG 5/WK FOR 78 WK (STUDY DURATION: 91 WK), Tumor Site: Type of Lesion: UTERUS: ENDOMETRIAL STROMAL POLYP) is given as “equivocal”; the carcinogen call (Species: MOUSE, Strain/Sex: B6C3F1/MALE, Route: GAVAGE, Dose: 0, 1,442, 2,885 MG/KG 5/WK FOR 78 WK (STUDY DURATION: 91 WK), Dose: 0, 1,442, 2,885 MG/KG 5/WK FOR 78 WK (STUDY DURATION: 91 WK)) was “inactive; negative”; the carcinogen call (Species: RAT, Strain/Sex: OSBORNE-MENDEL/FEMALE, Route: GAVAGE, Dose: 0, 475, 950 MG/KG 5/WK FOR 78 WK (STUDY DURATION: 111 WK), Dose: 0, 475, 950 MG/KG 5/WK FOR 78 WK (STUDY DURATION: 111 WK), Tumor Site: Type of Lesion: MAMMARY GLAND: ADENOCARCINOMA, LUNG: HEMANGIOSARCOMA, SPLEEN: HEMANGIOSARCOMA, Tumor Site: Type of Lesion: MAMMARY GLAND: ADENOCARCINOMA, LUNG: HEMANGIOSARCOMA, SPLEEN: HEMANGIOSARCOMA) is on record as “equivocal”; the carcinogen call (Species: RAT, Strain/Sex: OSBORNE-MENDEL/MALE, Route: GAVAGE, Dose: 0, 382, 764 MG/KG 5/WK FOR 78 WK (STUDY DURATION: 111 WK), Dose: 0, 382, 764 MG/KG 5/WK FOR 78 WK (STUDY DURATION: 111 WK)) is “inactive; negative”.

Values taken from PubChem BioAssay AID1259411 (Chemical Carcinogenesis Research Information System (CCRIS), 2018).
